Experimental findings from paper PMC9848286, “Design, synthesis, and biological investigation of oxadiazolyl, thiadiazolyl, and pyrimidinyl linked antipyrine derivatives as potential non-acidic anti-inflammatory agents” (Journal of Enzyme Inhibition and Medicinal Chemistry, 2023) are described below.

The target of data set [1] is T1, COX-1 (Ovis aries, UniProt P05979).
T1 sequence (P05979 25-600): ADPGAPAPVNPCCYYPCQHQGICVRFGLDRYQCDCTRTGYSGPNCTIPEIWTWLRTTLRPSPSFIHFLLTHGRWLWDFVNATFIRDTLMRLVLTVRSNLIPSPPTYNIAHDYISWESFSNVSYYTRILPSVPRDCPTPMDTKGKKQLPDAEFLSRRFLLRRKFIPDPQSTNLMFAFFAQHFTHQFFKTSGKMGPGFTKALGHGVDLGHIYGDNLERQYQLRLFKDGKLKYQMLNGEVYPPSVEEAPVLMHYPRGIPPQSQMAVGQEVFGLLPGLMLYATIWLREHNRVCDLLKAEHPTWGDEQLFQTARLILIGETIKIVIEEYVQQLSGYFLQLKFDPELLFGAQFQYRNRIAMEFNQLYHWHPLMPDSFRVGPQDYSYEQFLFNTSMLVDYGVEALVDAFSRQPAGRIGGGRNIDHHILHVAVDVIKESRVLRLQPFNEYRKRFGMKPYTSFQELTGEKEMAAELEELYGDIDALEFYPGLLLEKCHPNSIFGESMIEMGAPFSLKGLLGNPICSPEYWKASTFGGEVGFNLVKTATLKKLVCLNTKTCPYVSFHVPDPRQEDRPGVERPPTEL
Nature of the data set: In vitro COX-1 inhibition, colorimetric screening assay kit. Particulars: for HillSlope (best-fit value), COX-1 inhibition / LogIC50 (best-fit value), COX-1 inhibition: supplementary dose-response curve.
Method: (§1) This assay examined the inhibitory potency of the target structures towardboth COX isoforms via colorimetric screening assay kit (Cayman Chemical, MI, United States) based on the directions provided by the manufacturer. ELISA reader Thermo Scientific Multiskan® EX (Thermo scientific, United States) was used. […] Serial dilutions of CLX, as a reference standard, and tested compounds at concentrations of 1000, 300, 100, 30, 10, 3, 1, and 0.30 nM were used in the assay. IC50 of the tested compounds were determined using three different experiments. The selectivity (SI) of each ompound was measured using the COX-2/COX-1 ratio, which compares the IC50 of COX-2 and COX-1.

The target of data set [2] is T2, COX-2 (Homo sapiens, UniProt P35354).
T2 sequence (P35354 18-604): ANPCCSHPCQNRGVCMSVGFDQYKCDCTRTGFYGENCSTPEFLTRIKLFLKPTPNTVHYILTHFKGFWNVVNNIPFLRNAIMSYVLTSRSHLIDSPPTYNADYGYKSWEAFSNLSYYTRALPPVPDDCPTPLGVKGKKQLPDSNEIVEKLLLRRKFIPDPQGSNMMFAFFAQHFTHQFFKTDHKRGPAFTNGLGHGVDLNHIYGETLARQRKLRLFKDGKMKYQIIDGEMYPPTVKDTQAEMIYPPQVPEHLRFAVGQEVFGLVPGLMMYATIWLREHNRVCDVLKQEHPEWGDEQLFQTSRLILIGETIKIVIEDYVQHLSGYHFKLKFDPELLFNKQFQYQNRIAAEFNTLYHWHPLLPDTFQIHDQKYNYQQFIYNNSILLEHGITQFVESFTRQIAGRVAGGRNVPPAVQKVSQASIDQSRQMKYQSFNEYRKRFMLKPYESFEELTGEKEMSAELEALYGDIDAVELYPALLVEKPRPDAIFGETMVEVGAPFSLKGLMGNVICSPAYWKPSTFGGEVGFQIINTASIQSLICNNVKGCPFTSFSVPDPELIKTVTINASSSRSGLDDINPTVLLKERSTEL
The data set can be described thus: In vitro COX-2 inhibition, colorimetric screening assay kit. As to conditions: for (SI) in vitro COX-2 selectivity index: COX-1 IC50/COX-2 IC50; for HillSlope (best-fit value), COX-2 inhibition / LogIC50 (best-fit value), COX-2 inhibition: supplementary dose-response curve.
Method: as §1

Consider `Cc1ccc(-c2nc(SCC(=O)Nc3c(C)n(C)n(-c4ccccc4)c3=O)[nH]c(=O)c2C#N)cc1` [8a, 2-((5-Cyano-6-oxo-4-(p-tolyl)-1,6-dihydropyrimidin-2-yl)thio)-N-(1,5-dimethyl-3-oxo-2-phenyl-2,3-dihydro-1H-pyrazol-4-yl)acetamide], for which the melting point is greater than 300 °C. In data set [1], the IC50 is 139 ± 2.31 nM; the “HillSlope (best-fit value), COX-1 inhibition” value (from here on “HillSlope … COX-1 inhibition”) was -0.3685; the “LogIC50 (best-fit value), COX-1 inhibition” value (from here on “LogIC50 … COX-1 inhibition”) is recorded as 2.142 Log (nM). For the same compound, in data set [2], the half-maximal inhibitory concentration (IC50) came to 88.6 ± 2.19 nM; the “(SI) in vitro COX-2 selectivity index” value was determined as 1.57; the “HillSlope (best-fit value), COX-2 inhibition” value (“HillSlope … COX-2 inhibition” below) is -0.3794; the “LogIC50 (best-fit value), COX-2 inhibition” value (“LogIC50 … COX-2 inhibition” for short) is recorded as 1.948 Log (nM).
Compound `COc1ccc(-c2nc(SCC(=O)Nc3c(C)n(C)n(-c4ccccc4)c3=O)[nH]c(=O)c2C#N)cc1` [8d, 2-((5-Cyano-4–(4-methoxyphenyl)-6-oxo-1,6-dihydropyrimidin-2-yl)thio)-N-(1,5-dimethyl-3-oxo-2-phenyl-2,3-dihydro-1H-pyrazol-4-yl)acetamide] showed a melting point of 166 to 168 °C. Also, in data set [1], it took 91.6 ± 2.15 nM to reach half-maximal inhibition (IC50); the “HillSlope … COX-1 inhibition” value was -0.3099; the “LogIC50 … COX-1 inhibition” value is recorded as 1.962 Log (nM). In data set [2], the IC50 turned out to be 68.7 ± 2.19 nM; the “(SI) in vitro COX-2 selectivity index” value was 1.33; the “HillSlope … COX-2 inhibition” value was -0.3543; the “LogIC50 … COX-2 inhibition” value is recorded as 1.837 Log (nM).
`Cc1ccc(-c2nnc(SCC(=O)Nc3c(C)n(C)n(-c4ccccc4)c3=O)o2)cc1` [4a, N-(1,5-Dimethyl-3-oxo-2-phenyl-2,3-dihydro-1H-pyrazol-4-yl)-2-((5-(p-tolyl)-1,3,4-oxadiazol-2-yl)thio)acetamide] returned a melting point of 234 to 236 °C. Besides, in data set [1], the IC50 turned out to be 178 ± 2.15 nM; the “HillSlope … COX-1 inhibition” value is reported as -0.3744; the “LogIC50 … COX-1 inhibition” value is recorded as 2.252 Log (nM). In data set [2], it took 86.9 ± 2.19 nM to reach half-maximal inhibition (IC50); the “(SI) in vitro COX-2 selectivity index” value is listed as 2.05; the “HillSlope … COX-2 inhibition” value was -0.3184; the “LogIC50 … COX-2 inhibition” value was 1.939 Log (nM).
`COc1ccc(NC(=O)Nc2nnc(SCC(=O)Nc3c(C)n(C)n(-c4ccccc4)c3=O)s2)cc1` [6c, N-(1,5-Dimethyl-3-oxo-2-phenyl-2,3-dihydro-1H-pyrazol-4-yl)-2-((5–(3-(4-methoxyphenyl)ureido)-1,3,4-thiadiazol-2-yl)thio)acetamide] showed a melting point of 250 to 252 °C. In data set [1], the IC50 worked out at 282.1 ± 2.34 nM; the “HillSlope … COX-1 inhibition” value was -0.2958; the “LogIC50 … COX-1 inhibition” value was 2.450 Log (nM). Further, in data set [2], the IC50 came to 86.1 ± 2.26 nM; the “(SI) in vitro COX-2 selectivity index” value is listed as 3.28; the “HillSlope … COX-2 inhibition” value is reported as -0.3558; the “LogIC50 … COX-2 inhibition” value was 1.935 Log (nM).
`Cc1c(NC(=O)CSc2nnc(-c3ccc([N+](=O)[O-])cc3)o2)c(=O)n(-c2ccccc2)n1C` [4d, N-(1,5-Dimethyl-3-oxo-2-phenyl-2,3-dihydro-1H-pyrazol-4-yl)-2-((5–(4-nitrophenyl)-1,3,4-oxadiazol-2-yl)thio)acetamide] registered a melting point of 214 to 216 °C. In data set [1], 50.8 ± 2.18 nM corresponded to half-maximal inhibition (IC50); the “HillSlope … COX-1 inhibition” value is -0.3754; the “LogIC50 … COX-1 inhibition” value is 1.705 Log (nM). Also, in data set [2], 65.5 ± 2.23 nM corresponded to half-maximal inhibition (IC50); the “(SI) in vitro COX-2 selectivity index” value amounted to 0.77; the “HillSlope … COX-2 inhibition” value is on record as -0.3340; the “LogIC50 … COX-2 inhibition” value is given as 1.817 Log (nM).
`Cc1c(NC(=O)CSc2nc(-c3ccc(Br)cc3)c(C#N)c(=O)[nH]2)c(=O)n(-c2ccccc2)n1C` [8c, 2-((4–(4-Bromophenyl)-5-cyano-6-oxo-1,6-dihydropyrimidin-2-yl)thio)-N-(1,5-dimethyl-3-oxo-2-phenyl-2,3-dihydro-1H-pyrazol-4-yl)acetamide]: the melting point was in the range of 243 to 245 °C. Moreover, in data set [1], inhibition was half-maximal at 164 ± 2.39 nM (IC50); the “HillSlope … COX-1 inhibition” value was -0.2705; the “LogIC50 … COX-1 inhibition” value was 2.214 Log (nM). For the same compound, in data set [2], the IC50 was 130 ± 2.1 nM; the “(SI) in vitro COX-2 selectivity index” value was found to be 1.26; the “HillSlope … COX-2 inhibition” value was -0.3953; the “LogIC50 … COX-2 inhibition” value was 2.113 Log (nM).
In the case of `Cc1c(NC(=O)CSc2nnc(NC(=O)Nc3ccc(Cl)cc3)s2)c(=O)n(-c2ccccc2)n1C` [6d, 2-((5–(3-(4-Chlorophenyl)ureido)-1,3,4-thiadiazol-2-yl)thio)-N-(1,5-dimethyl-3-oxo-2-phenyl-2,3-dihydro-1H-pyrazol-4-yl)acetamide], the melting point was 248 to 250 °C. Further, in data set [1], it took 106 ± 2.16 nM to reach half-maximal inhibition (IC50); the “HillSlope … COX-1 inhibition” value was -0.3655; the “LogIC50 … COX-1 inhibition” value is reported as 2.025 Log (nM). Also, in data set [2], the midpoint of inhibition, the IC50, lay at 169 ± 2.34 nM; the “(SI) in vitro COX-2 selectivity index” value was determined as 0.63; the “HillSlope … COX-2 inhibition” value is recorded as -0.3273; the “LogIC50 … COX-2 inhibition” value is on record as 2.228 Log (nM).
`Cc1ccc(NC(=O)Nc2nnc(SCC(=O)Nc3c(C)n(C)n(-c4ccccc4)c3=O)s2)cc1` [6b, N-(1,5-Dimethyl-3-oxo-2-phenyl-2,3-dihydro-1H-pyrazol-4-yl)-2-((5–(3-(p-tolyl)ureido)-1,3,4-thiadiazol-2-yl)thio)acetamide]: the melting point was in the range of 253 to 255 °C. For the same compound, in data set [1], the midpoint of inhibition, the IC50, lay at 82.3 ± 2.28 nM; the “HillSlope … COX-1 inhibition” value is -0.3398; the “LogIC50 … COX-1 inhibition” value is reported as 1.915 Log (nM). In data set [2], half-maximal inhibition (IC50) required 104 ± 2.25 nM; the “(SI) in vitro COX-2 selectivity index” value is on record as 0.79; the “HillSlope … COX-2 inhibition” value is -0.2866; the “LogIC50 … COX-2 inhibition” value is listed as 2.016 Log (nM).
For `Cc1c(NC(=O)CSc2nnc(NC(=O)Nc3ccccc3)s2)c(=O)n(-c2ccccc2)n1C` [6a, N-(1,5-Dimethyl-3-oxo-2-phenyl-2,3-dihydro-1H-pyrazol-4-yl)-2-((5–(3-phenylureido)-1,3,4-thiadiazol-2-yl)thio)acetamide], the melting point lay in the range of 254 to 256 °C. Besides, in data set [1], 132 ± 2.36 nM corresponded to half-maximal inhibition (IC50); the “HillSlope … COX-1 inhibition” value is -0.3215; the “LogIC50 … COX-1 inhibition” value is on record as 2.119 Log (nM). For the same compound, in data set [2], the IC50 came to 155 ± 2.07 nM; the “(SI) in vitro COX-2 selectivity index” value came to 0.85; the “HillSlope … COX-2 inhibition” value was -0.3826; the “LogIC50 … COX-2 inhibition” value is recorded as 2.190 Log (nM).
Take `Cc1c(NC(=O)CSc2nc(-c3ccc(Cl)cc3)c(C#N)c(=O)[nH]2)c(=O)n(-c2ccccc2)n1C` [8b, 2-((4–(4-Chlorophenyl)-5-cyano-6-oxo-1,6-dihydropyrimidin-2-yl)thio)-N-(1,5-dimethyl-3-oxo-2-phenyl-2,3-dihydro-1H-pyrazol-4-yl)acetamide]: the melting point was in the range of 239 to 241 °C. In data set [1], the IC50 stood at 209 ± 2.21 nM; the “HillSlope … COX-1 inhibition” value was -0.3071; the “LogIC50 … COX-1 inhibition” value is reported as 2.320 Log (nM). For the same compound, in data set [2], half-maximal inhibition (IC50) required 120 ± 2.06 nM; the “(SI) in vitro COX-2 selectivity index” value amounted to 1.74; the “HillSlope … COX-2 inhibition” value is -0.3650; the “LogIC50 … COX-2 inhibition” value was 2.079 Log (nM).
